In PubChem BioAssay (NCI):
Several values for one entry are separate records, joined by “and”; a condition that tells them apart may be missing. Identical values can stand only once.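 These data come from cells grown in 96-well plates and exposed to compound for 48 hours at five concentrations. GI50 is the concentration that inhibits growth by half. TGI marks complete inhibition of growth.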

Assays:
Assay in all cases: growth of human tumour cells (NCI), 48 h
[1] = tested on: A549 NSCLC
[2] = tested on: CAKI-1 renal
[3] = tested on: K-562 leukemia
[4] = tested on: MDA-MB-435
[5] = tested on: NCI-H226 lung
[6] = tested on: SK-MEL-5 melanoma
[7] = tested on: SK-OV-3 ovarian
[8] = tested on: TK-10 renal
[9] = tested on: UO-31 renal
[10] = tested on: KM20L2 colon
[11] = tested on: XF 498 CNS

Compound COc1cc(C2C(Cl)C(=O)N2c2c(C)n(C)n(-c3ccccc3)c2=O)ccc1O (centres undefined) has a TGI [1] of 61.9 µM, a TGI [2] greater than 100 µM and a TGI [3] greater than 100 µM. For the same compound, the TGI [4] was 31.8 µM, the TGI [5] was 53.8 µM and the TGI [6] was 53.7 µM. It also gave a TGI [7] of 80.2 µM, a TGI [8] of 63.5 µM and a TGI [9] of 32.9 µM.

Cc1nn(-c2ccccc2)c(C)c1/C=N/N=C1\S/C(=C\c2ccc(Cl)cc2)C(=O)N1c1ccccc1 was tested, and the TGI [1] was greater than 100 µM, the TGI [2] was greater than 100 µM and the TGI [3] was greater than 100 µM. The TGI [4] was greater than 100 µM, the TGI [5] was greater than 100 µM and the TGI [6] was greater than 100 µM. The TGI [7] was greater than 100 µM, the TGI [8] was greater than 100 µM and the TGI [9] was greater than 100 µM.

In the case of CC1=C2C(=CO[C@H](C)[C@H]2C)C(=O)C(C(=O)O)=C1O, the GI50 [1] is reported as 31.1 µM, the TGI [1] is reported as 142 µM and > 88.1 µM and the GI50 [2] is reported as 16.6 µM. For the same compound, the TGI [2] was 54.2 µM and 77.8 µM, the GI50 [3] was 36.9 µM and the TGI [3] was 54.8 µM. The TGI [10] was 71.7 µM, the TGI [4] was 76.1 µM and the GI50 [5] was 18.4 µM. For the same compound, the TGI [5] was 59.9 µM and 47.4 µM, the GI50 [6] was 20.4 µM and the TGI [6] was 35.7 µM and 45.4 µM. For the same compound, the GI50 [7] was 28 µM, the TGI [7] was 88 µM and 150 µM and the TGI [8] was 63.7 µM. The GI50 [9] was 22.3 µM, the TGI [9] was 106 µM and 50.6 µM and the TGI [11] was 13.6 µM.

Compound C=C(C)[C@H]1C2=CC(C)=C(O2)[C@@H](O[C@@H]2c3oc(cc3C)[C@H](C(=C)C)[C@H]3C=C(CC[C@H]2C(=C)C)C(=O)O3)[C@H](C(=C)C)CCC2=C[C@H]1OC2=O has a TGI [1] greater than 100 µM, a TGI [2] greater than 100 µM and a TGI [3] greater than 100 µM. It also gave a TGI [4] greater than 100 µM, a TGI [5] greater than 100 µM and a TGI [6] greater than 100 µM. For the same compound, the TGI [7] was greater than 100 µM, the TGI [8] was greater than 100 µM and the TGI [9] was greater than 100 µM.

Work on CC(C)/C(Cl)=N\OC(NC(=O)P(=O)(c1ccccc1)c1ccccc1)(C(F)(F)F)C(F)(F)F yielded a TGI [1] of 42.8 µM, a TGI [2] of 46.3 µM and a TGI [3] of 23.8 µM. It also gave a TGI [4] of 30.6 µM, a TGI [5] of 38.4 µM and a TGI [6] of 26.7 µM. It also gave a TGI [7] greater than 100 µM, a TGI [8] of 25.2 µM and a TGI [9] of 21 µM.

In the case of CCc1cc2c(c3c1CCCC3=O)CC1(Cc3ccc(C(=O)OC)cc3C1)C2 (centres undefined), the TGI [1] is reported as greater than 100 µM, the TGI [2] is reported as greater than 100 µM and the TGI [3] is reported as greater than 100 µM. The TGI [4] was greater than 100 µM, the TGI [5] was greater than 100 µM and the TGI [6] was 30.1 µM. The TGI [7] was greater than 100 µM, the TGI [8] was greater than 100 µM and the TGI [9] was greater than 100 µM.

With O=c1oc(C(C(F)(F)F)C(F)(F)F)nc2ccccc12 the TGI [1] was greater than 100 µM, the TGI [2] was greater than 100 µM and the TGI [3] was greater than 100 µM. For the same compound, the TGI [4] was greater than 100 µM, the TGI [5] was greater than 100 µM and the TGI [6] was greater than 100 µM. It also gave a TGI [7] greater than 100 µM, a TGI [8] greater than 100 µM and a TGI [9] greater than 100 µM.

With CC(C)(C)OC(=O)NCC(CNC(=O)OC(C)(C)C)c1nc(C(N)=O)cs1 the TGI [1] was greater than 100 µM, the TGI [2] was greater than 100 µM and the TGI [3] was greater than 100 µM. For the same compound, the TGI [4] was greater than 100 µM, the TGI [5] was greater than 100 µM and the TGI [6] was greater than 100 µM. It also gave a TGI [7] greater than 100 µM, a TGI [8] greater than 100 µM and a TGI [9] greater than 100 µM.

Compound CC(=O)NC1C(OCc2ccccc2)OC(CO)C(O)C1OC(C)C(=O)NC(C(=O)NC(CCC(=O)NCCCCNc1c2ccccc2nc2cccc([N+](=O)[O-])c12)C(N)=O)C(C)C (centres undefined) has a TGI [1] of 7.77 µM, a TGI [2] greater than 100 µM and a TGI [3] greater than 100 µM. For the same compound, the TGI [4] was 2.84 µM, the TGI [5] was 12.3 µM and the TGI [6] was 7.39 µM. It also gave a TGI [7] greater than 63.3 µM, a TGI [8] of 32.4 µM and a TGI [9] of 13.4 µM.

Compound C=C=C(CC(CC(=C)Br)(C(=O)OC)C(=O)OC)S(=O)(=O)c1ccccc1 has a TGI [1] of 10.6 µM, a TGI [2] of 2.71 µM and a TGI [3] greater than 100 µM. For the same compound, the TGI [4] was 4.17 µM, the TGI [5] was 12.2 µM and the TGI [6] was 10.3 µM. It also gave a TGI [7] of 30.2 µM, a TGI [8] of 4.8 µM and a TGI [9] of 3.69 µM.

O=C1c2c(O)cccc2-c2nn(CCNCCO)c3ccc(NCCNCCO)c1c23 showed a TGI [1] of 0.482 µM, a TGI [2] of 1.81 µM and a TGI [10] of 9.29 µM. The TGI [4] was 1.87 µM, the TGI [5] was 0.0964 µM and the TGI [6] was 1.13 µM. The TGI [7] was 1.14 µM, the TGI [8] was 7.08 µM and the TGI [9] was 10.2 µM. It also gave a TGI [11] of 0.379 µM.

Work on C=CC[n+]1c2ccccc2n2cc([N+](=O)[O-])ccc21 yielded a TGI [1] greater than 100 µM, a TGI [2] greater than 100 µM and a TGI [3] of 59.2 µM. The TGI [4] was 89.2 µM, the TGI [5] was 69.3 µM and the TGI [6] was 42 µM. It also gave a TGI [7] greater than 100 µM, a TGI [8] greater than 100 µM and a TGI [9] greater than 100 µM.

For O=C(Nc1ccccc1C(=O)NCc1ccccc1)/C(=C/c1ccccc1)NC(=O)c1ccccc1, the TGI [1] was greater than 100 µM, the TGI [2] was greater than 100 µM and the TGI [3] was greater than 100 µM. The TGI [4] was greater than 100 µM, the TGI [5] was greater than 100 µM and the TGI [6] was greater than 100 µM. The TGI [7] was greater than 100 µM, the TGI [8] was greater than 100 µM and the TGI [9] was greater than 100 µM.

CC1(C)CC2(CC(C)(C)N1O)NC(=O)OC2=O was tested, and the TGI [1] was greater than 100 µM, the TGI [2] was greater than 100 µM and the TGI [3] was greater than 100 µM. It also gave a TGI [10] greater than 100 µM, a TGI [5] greater than 100 µM and a TGI [6] greater than 100 µM. The TGI [7] was greater than 100 µM, the TGI [9] was greater than 100 µM and the TGI [11] was greater than 100 µM.

Compound Cc1nnc2n1N=C(c1ccc(Cl)cc1Cl)/C(=C/c1ccc(-c3ccc([N+](=O)[O-])cc3Cl)o1)S2 has a GI50 [1] of 31.7 µM, a TGI [1] greater than 100 µM and a GI50 [2] of 25.2 µM. For the same compound, the TGI [2] was 84.8 µM, the GI50 [3] was 13.6 µM and the TGI [3] was 26.9 µM. For the same compound, the GI50 [4] was 13.5 µM, the TGI [4] was 29 µM and the GI50 [5] was 20.7 µM. It also gave a TGI [5] of 41.1 µM, a GI50 [6] of 16.5 µM and a TGI [6] of 32.6 µM. The GI50 [7] was greater than 100 µM, the TGI [7] was greater than 100 µM and the GI50 [8] was 18.4 µM. It also gave a TGI [8] of 34.8 µM, a GI50 [9] of 14.8 µM and a TGI [9] of 31 µM.
